Experimental data taken from the supplement of paper PMC10307832.

Assays:
Assay in all cases: relative viability (nuclei count vs DMSO), 5 days (fraction); higher = more cells survive
Cabozantinib + Lapatinib = compound: COc1cc2nccc(Oc3ccc(NC(=O)C4(C(=O)Nc5ccc(F)cc5)CC4)cc3)c2cc1OC [Cabozantinib] + CS(=O)(=O)CCNCc1ccc(-c2ccc3ncnc(Nc4ccc(OCc5cccc(F)c5)c(Cl)c4)c3c2)o1 [Lapatinib] (partner 2 µM)
Method in brief: (§1)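 Relative viability is defined as nuclei in treated wells over nuclei in vehicle wells. Duplicate plates were run and medians reported. Lung cancer cell lines in 1536-well plates were dosed by pin tool one day after seeding, with one drug or with a fixed anchor-drug dose plus five library-drug doses (not always all listed) in √10 steps, and nuclei were counted after 5 days.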

Kobe2602 + Pictilisib = compound: C1=CC(=CC=C1NC(=S)NNC2=C(C=C(C=C2[N+](=O)[O-])C(F)(F)F)[N+](=O)[O-])F [Kobe2602] + CS(=O)(=O)N1CCN(Cc2cc3nc(-c4cccc5[nH]ncc45)nc(N4CCOCC4)c3s2)CC1 [Pictilisib] (partner 1 µM)
Method in brief: as §1

Zosuquidar + Linsitinib = compound: O[C@@H](COc1cccc2ncccc12)CN1CCN([C@@H]2c3ccccc3[C@@H]3[C@H](c4ccccc42)C3(F)F)CC1 [Zosuquidar] + C[C@]1(O)C[C@@H](c2nc(-c3ccc4ccc(-c5ccccc5)nc4c3)c3c(N)nccn32)C1 [Linsitinib] (partner 1 µM)
Method in brief: as §1

Zosuquidar + Navitoclax = compound: O[C@@H](COc1cccc2ncccc12)CN1CCN([C@@H]2c3ccccc3[C@@H]3[C@H](c4ccccc42)C3(F)F)CC1 [Zosuquidar] + CC1(C)CCC(c2ccc(Cl)cc2)=C(CN2CCN(c3ccc(C(=O)NS(=O)(=O)c4ccc(N[C@H](CCN5CCOCC5)CSc5ccccc5)c(S(=O)(=O)C(F)(F)F)c4)cc3)CC2)C1 [Navitoclax] (partner 0.5 µM)
Method in brief: as §1

Cell Line	relative viability (Cabozantinib + Lapatinib; first compound 0.06325 µM)	relative viability (Cabozantinib + Lapatinib; first compound 0.2 µM)	relative viability (Cabozantinib + Lapatinib; first compound 0.6325 µM)	relative viability (Cabozantinib + Lapatinib; first compound 2 µM)	relative viability (Kobe2602 + Pictilisib; first compound 0.2 µM)	relative viability (Kobe2602 + Pictilisib; first compound 0.6325 µM)	relative viability (Kobe2602 + Pictilisib; first compound 2 µM)	relative viability (Kobe2602 + Pictilisib; first compound 6.325 µM)	relative viability (Kobe2602 + Pictilisib; first compound 20 µM)	relative viability (Zosuquidar + Linsitinib; first compound 0.01 µM)	relative viability (Zosuquidar + Linsitinib; first compound 0.03162 µM)	relative viability (Zosuquidar + Linsitinib; first compound 0.3162 µM)	relative viability (Zosuquidar + Linsitinib; first compound 1 µM)	relative viability (Zosuquidar + Navitoclax; first compound 0.01 µM)	relative viability (Zosuquidar + Navitoclax; first compound 0.03162 µM)	relative viability (Zosuquidar + Navitoclax; first compound 0.3162 µM)	relative viability (Zosuquidar + Navitoclax; first compound 1 µM)	relative viability (Cabozantinib + Lapatinib; first compound 0.02 µM)	relative viability (Zosuquidar + Linsitinib; first compound 0.1 µM)	relative viability (Zosuquidar + Navitoclax; first compound 0.1 µM)
LCLC-97TM1	1.21	0.927	1.13	1.09	0.195	0.18	0.185	0.15	0.167	0.204	0.177	0.174	0.171	0.448	0.396	0.496	0.412	–	–	–
LU99A	1.07	0.985	0.996	0.931	0.317	0.365	0.312	0.383	0.359	0.5	0.54	0.539	0.659	0.783	0.819	0.91	0.73	0.896	0.483	0.79
NCI-H1299	1.04	0.936	1.03	1.04	0.862	0.957	0.706	0.71	0.916	1.03	0.955	0.992	0.959	1.06	1.02	1.01	1.04	0.95	0.967	1.03
NCI-H1355	1.12	1.02	0.979	1.03	0.358	0.526	0.451	0.429	0.42	0.864	0.798	0.87	0.887	1.06	0.951	0.954	1	0.825	0.641	0.797
HARA	0.806	0.856	0.809	0.639	0.445	0.415	0.375	0.345	0.495	0.84	0.993	1.04	1.11	1.1	1.15	1.1	1.14	0.582	0.959	1.1
LXF-289	0.922	0.896	0.918	0.92	0.82	0.814	0.693	0.862	0.799	0.888	1	0.981	1.03	0.934	0.957	0.952	1.02	0.91	0.94	0.911
201T	1.14	0.991	0.999	1.08	0.69	0.718	0.672	0.686	0.697	1.06	1.01	0.961	1.01	1.1	1.16	1.2	1.21	1.02	0.892	1.14
HCC-827	0.233	–	0.183	0.179	1	0.932	0.898	0.981	1.18	1	0.902	0.879	0.96	1.04	0.991	1.02	1.03	0.19	0.943	0.991
NCI-H1703	0.587	0.337	0.282	0.231	0.26	0.245	0.225	0.263	0.229	1.13	0.979	1.57	0.74	1.39	1.36	1.33	1.05	–	0.543	1.44
NCI-H1975	0.986	0.852	0.845	0.797	0.279	0.276	0.277	0.256	0.299	0.928	0.905	1.01	1.02	1.13	1.14	1.14	0.993	0.969	1.07	1.17
NCI-H2023	0.74	0.708	0.552	0.591	0.259	0.269	0.223	0.215	0.228	0.656	0.815	0.631	0.776	0.958	1	1.05	0.92	0.473	0.605	0.916
ChaGo-K-1	–	–	–	–	0.761	1.05	0.625	0.725	0.732	–	–	–	–	1.14	0.971	1.09	0.964	–	–	1.28
COR-L 105	0.341	–	0.352	0.372	0.434	0.433	0.377	0.455	0.387	0.889	0.975	1.15	1.05	0.944	0.638	0.968	0.631	0.321	0.869	0.725
SK-MES-1	0.497	0.42	0.448	0.396	0.348	0.362	0.346	0.345	0.362	1.01	1.08	0.979	1.1	1.19	1.18	1.25	1.25	0.468	0.991	1.09
A549	1.03	0.872	0.926	0.807	–	0.476	0.487	0.524	0.514	0.766	0.571	0.53	0.564	1.16	0.892	1.23	1.24	0.996	0.416	1.16
NCI-H23	1.37	1.07	1.04	0.885	0.47	0.581	0.491	0.516	0.497	0.601	0.449	0.504	0.675	0.765	0.96	0.79	0.862	–	0.483	0.746
NCI-H1993	0.807	0.792	0.725	0.814	0.649	0.807	0.861	0.893	0.785	0.707	0.783	0.695	0.706	0.966	0.978	1.1	0.802	0.76	0.698	0.896
